Results taken from PubChem BioAssay (NCI).
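Five concentrations, 48 hours, 96-well plates. Abbreviation: GI50, concentration required for 50% inhibition of growth. TGI: concentration producing complete growth inhibition.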

What was measured:
Test in all cases: inhibition of tumour cell growth, NCI panel, 48 h; in the data active = GI50 below about 0.43 µM; inactive = the rest
K-562 leukemia = tested on: K-562 leukemia
MOLT-4 leukemia = tested on: MOLT-4 leukemia
OVCAR-8 ovarian = tested on: OVCAR-8 ovarian
RXF 393 renal = tested on: RXF 393 renal
A498 renal = tested on: A498 renal
786-0 renal = tested on: 786-0 renal
SK-MEL-2 melanoma = tested on: SK-MEL-2 melanoma
SF-295 CNS = tested on: SF-295 CNS
OVCAR-3 ovarian = tested on: OVCAR-3 ovarian
NCI-H226 lung = tested on: NCI-H226 lung
UO-31 renal = tested on: UO-31 renal
NCI-H522 lung = tested on: NCI-H522 lung
COLO 205 colon = tested on: COLO 205 colon
SK-MEL-28 melanoma = tested on: SK-MEL-28 melanoma
U251 CNS = tested on: U251 CNS
KM12 colon = tested on: KM12 colon
HOP-62 NSCLC = tested on: HOP-62 NSCLC
HT29 colon = tested on: HT29 colon
LOX IMVI melanoma = tested on: LOX IMVI melanoma
ACHN renal = tested on: ACHN renal
UACC-257 melanoma = tested on: UACC-257 melanoma
HOP-92 NSCLC = tested on: HOP-92 NSCLC
TK-10 renal = tested on: TK-10 renal
IGROV1 ovarian = tested on: IGROV1 ovarian
MCF7 breast = tested on: MCF7 breast
HS 578T breast = tested on: HS 578T breast
SK-MEL-5 melanoma = tested on: SK-MEL-5 melanoma
EKVX NSCLC = tested on: EKVX NSCLC
CAKI-1 renal = tested on: CAKI-1 renal
MALME-3M melanoma = tested on: MALME-3M melanoma
OVCAR-4 ovarian = tested on: OVCAR-4 ovarian
A549 NSCLC = tested on: A549 NSCLC
SN12C renal = tested on: SN12C renal
NCI/ADR-RES ovarian = tested on: NCI/ADR-RES ovarian
MDA-MB-435 = tested on: MDA-MB-435
M14 melanoma = tested on: M14 melanoma
PC-3 prostate = tested on: PC-3 prostate
NCI-H23 lung = tested on: NCI-H23 lung
SNB-19 CNS = tested on: SNB-19 CNS
MDA-MB-231 breast = tested on: MDA-MB-231 breast
SW-620 colon = tested on: SW-620 colon
UACC-62 melanoma = tested on: UACC-62 melanoma
SF-268 CNS = tested on: SF-268 CNS
T-47D breast = tested on: T-47D breast
RPMI-8226 leukemia = tested on: RPMI-8226 leukemia
CCRF-CEM leukemia = tested on: CCRF-CEM leukemia
SR leukemia = tested on: SR leukemia
DU-145 prostate = tested on: DU-145 prostate
HCT-116 colon = tested on: HCT-116 colon
SNB-75 CNS = tested on: SNB-75 CNS
HCT-15 colon = tested on: HCT-15 colon
HL-60(TB) leukemia = tested on: HL-60(TB) leukemia
NCI-H460 lung = tested on: NCI-H460 lung
OVCAR-5 ovarian = tested on: OVCAR-5 ovarian
SF-539 CNS = tested on: SF-539 CNS

C[C@]12CCc3sc(Nc4ccc(F)cc4F)nc3C1=CC[C@@H]1[C@@H]2CC[C@]2(C)C(=O)CC[C@@H]12
inactive: GI50 (K-562 leukemia) 2430 nM | GI50 (MOLT-4 leukemia) 2440 nM | GI50 (OVCAR-8 ovarian) 2960 nM
> 100 µM: TGI (K-562 leukemia) | TGI (MOLT-4 leukemia) | TGI (OVCAR-8 ovarian)

CCOC1=NC(C(F)(F)F)(C(F)(F)F)N=C(N2CCCCC2)O1
> 100 µM: TGI (RXF 393 renal) | TGI (A498 renal) | TGI (K-562 leukemia) | TGI (786-0 renal) | TGI (SK-MEL-2 melanoma) | TGI (SF-295 CNS) | TGI (OVCAR-3 ovarian) | TGI (NCI-H226 lung) | TGI (MOLT-4 leukemia) | TGI (UO-31 renal) | TGI (NCI-H522 lung) | TGI (COLO 205 colon) | TGI (SK-MEL-28 melanoma) | TGI (U251 CNS) | TGI (KM12 colon) | TGI (HOP-62 NSCLC) | TGI (HT29 colon) | TGI (LOX IMVI melanoma) | TGI (ACHN renal) | TGI (UACC-257 melanoma) | TGI (HOP-92 NSCLC) | TGI (TK-10 renal) | TGI (IGROV1 ovarian) | TGI (MCF7 breast) | TGI (HS 578T breast) | TGI (SK-MEL-5 melanoma) | TGI (EKVX NSCLC) | TGI (CAKI-1 renal) | TGI (MALME-3M melanoma) | TGI (OVCAR-4 ovarian) | TGI (OVCAR-8 ovarian) | TGI (A549 NSCLC) | TGI (SN12C renal) | TGI (NCI/ADR-RES ovarian) | TGI (MDA-MB-435) | TGI (M14 melanoma) | TGI (PC-3 prostate) | TGI (NCI-H23 lung) | TGI (SNB-19 CNS) | TGI (MDA-MB-231 breast) | TGI (SW-620 colon) | TGI (UACC-62 melanoma) | TGI (SF-268 CNS) | TGI (T-47D breast) | TGI (RPMI-8226 leukemia) | TGI (CCRF-CEM leukemia) | TGI (SR leukemia) | TGI (DU-145 prostate) | TGI (HCT-116 colon) | TGI (SNB-75 CNS) | TGI (HCT-15 colon) | TGI (HL-60(TB) leukemia) | TGI (NCI-H460 lung) | TGI (OVCAR-5 ovarian) | TGI (SF-539 CNS)
